Literature values, collected in patent US6316027A, “Fast-dissolving dosage forms for dopamine agonists” (priority 1995, dated 2001).

Columns and labels:
[1] = acidic environment
[2] = not given; remark: listed apart in the source
[3] = not given; remark: listed apart in the source
[4] = sub-lingual tablets, prolonged use

presystemic metabolism (first pass effect) (oral tablets, small intestine and/or liver)	blood urea nitrogen (oral, long-term studies, stopped after 7-10 days)	stomatitis [4]	fraction entering the brain ([2]; in vivo)	absorption from the small intestine ([2]; oral)	involuntary movements on prolonged use ([3]; prolonged use)	Compound	nasal side effects (intranasal)	buccal mucosal ulceration, share of patients [4]	dopamine agonist side effects (subcutaneous)	chemical stability [1]	incidence of malignant melanoma ([3]; patients undergoing treatment with levodopa)
extensive presystemic metabolism	unexplained rises in blood urea nitrogen	severe stomatitis				CN1CCc2cccc3c2[C@H]1Cc1ccc(O)c(O)c1-3 [apomorphine, 5,6,6a,7-tetrahydro-6-methyl-4H-dibenzo quinoline-10; 11-diol]	transient nasal blockage, burning sensation and swollen nose and lips	half the patients	nausea and vomiting	optimal chemical stability in an acidic environment	
			less than 1%	well absorbed from the small intestine	involuntary choreiform movements	N[C@@H](Cc1ccc(O)c(O)c1)C(=O)O [levodopa]					increased incidence of malignant melanoma
